The values that follow come from article PMC6982354, “Promising New Inhibitors of Tyrosyl-DNA Phosphodiesterase I (Tdp 1) Combining 4-Arylcoumarin and Monoterpenoid Moieties as Components of Complex Antitumor Therapy” (International Journal of Molecular Sciences, 2019).

The IC50 is the concentration that gives 50% inhibition. Broadly, the Kd is a measure of binding affinity in units of concentration.

The target of series [1] is T1, Tdp1 (Homo sapiens, UniProt Q9NUW8).
T1 construct: made in house
Description: Real-time detection of Tdp1 activity (FAM/BHQ1 oligonucleotide biosensor). The format is biochemical. Particulars: Tdp1 inhibition, 6-point concentration response curve. As to the method: A previously designed, real-time, hexadecameric oligonucleotide biosensor with 5(6)-carboxyfluorescein (FAM) at the 5′ end and fluorophore quencher BHQ1 (Black Hole Quencher-1) at the 3′-end was used to determine the inhibitory properties of the new compounds.
Real-Time Detection of Tdp1 Activity. The Tdp1 activity measurements were carried out as described. […] Tdp1 inhibition was calculated by comparing the rate of increase in fluorescence in the presence of the compound to that of DMSO control wells. IC50 values were determined using a 6-point concentration response curve. The data were imported into the MARS Data Analysis 2.0 program (BMG LABTECH), and the slope during the linear phase (here data from 0 to 7 min) was calculated.

Series [2] addresses T2, human Tdp1 (residues 149-608) (Homo sapiens, UniProt Q9NUW8).
T2 construct: human Tdp1 (residues 149-608); made in house; host or cells: Escherichia coli BL21 (DE3)
Description: Intrinsic tryptophan fluorescence quenching binding assay. Particulars: Tdp1 10 µM, 20 mM Tris, 250 mM NaCl, pH 8; triplicate; read-out: dissociation constant (KD). From the text:
Derivatives of nopol were the most complex compounds to synthesize and purify. Therefore, they were excluded from further consideration. Since we previously obtained contradictory results in in vivo experiments with the myrtenol derivative 2 (unpublished data), in this work, we decided to focus on geraniol derivatives for the in vivo studies. […] In addition to the activity assay that we reported above, we wanted to confirm the interactions between compound 3ba and Tdp1 before progressing to in vivo studies. Using an intrinsic tryptophan fluorescence quenching assay that we previously applied to study the binding interactions of Tdp1 and its inhibitors, we evaluated the binding of compound 3ba to recombinant Tdp1. Clear quenching of the Tdp1 intrinsic fluorescence was observed upon the addition of 3ba (Supplementary Figure S1). […]
Binding Assay. […] Intrinsic protein fluorescence was measured using PerkinElmer EnSpire Multimode Reader. […] The excitation wavelength was 280 nm and the intrinsic fluorescence was measured at 350 nm. […] Dissociation constants (KD) were calculated using the following formula, that takes nonspecific binding into account. […]
In this formula, I indicates changes in fluorescence intensity from the titration, Imax indicates the maximum fluorescence intensity change, [Lᴛ] is the titration ligand concentration, and Ns is the non-specific term. […]

The subject of another series is Krebs-2 carcinoma. Description: Influence on antitumor effect of tpc, Krebs-2 ascites tumor model. Particulars: for weight of the ascitic tumor: compared to only tpc. The format is in vivo, mice. The method, then: A study of the influence of 3ba on the antitumor effect of tpc (topotecan) was performed using a murine Krebs-2 carcinoma model. An ascitic tumor model combines the advantages of in vitro and in vivo approaches in studying the cytotoxic effect of compounds, since ascitic cells grow in the context of the organism (in vivo), and the intraperitoneal administration of drug ensures its direct contact with tumor cells (in vitro). The experiments were performed using female C57BL/6 mice, which were injected intraperitoneally with 2 × 10^5 ascitic cells on day zero. The mice were divided into six groups of ten animals each.
(§1) Lab animals. Thre-e to four-month-old male and female C57Bl/6 mice from the breeding colony of the Institute of Cytology and Genetics, SB RAS, were used in the study. The animals were kept on sawdust in plastic cages with 5–7 mice per cage, with free access to ground food (“Laboratorkorm”, Moskow, Russia) and tap water. All experiments were performed in accordance with protocols approved by the Animal Care and Use Committee of the Institute of Cytology and Genetics. Also, all experimental procedures were performed in accordance with the Directive 2010/63/EU for animal experiments.
(§2) Tumor models. The experimental tumor used was Lewis Lung Carcinoma (LLC) and Krebs-2. The animals were treated with tpc and the Tdp1 inhibitor 3ba two days after tumor transplantation. The tumor was transplanted into the muscles of the thigh by 0.2 million cells per mouse. Tpc (Sindan Pharma SRL, Romania) was administered intraperitoneally at a single dose of 0.5 mg/kg; Tdp1 inhibitor 3ba was administrated intraperitoneally at a single dose of 20, 40, or 80 mg/kg (for Krebs-2), or 120 mg/kg (for LLC) in 15% dimethyl sulfoxide (DMSO)–10% Tween-80 suspension in water (0.2 mL of suspension per mouse) simultaneously with tpc. Control mice were injected with a DMSO-Tween-80 mixture into the stomach.
(§3) Statistical analysis. The experimenter measuring and calculating the primary animal data (tumor size, lifespan) was blinded. After unblinding, the animal data were statistically processed using oneway ANOVA. Post-hoc testing was completed using Turkey’s Honestly Significant Difference (HSD). p < 0.05 was considered to be statistically significant. The statistical package […] version 12.5 was used for analysis. All results are expressed as mean ± SEM.

Another series deals with Lewis carcinoma. Description: Lifespan of mice with ascites variant of Lewis carcinoma. The series is classed as in vivo. Particulars: for increase in lifespan: tpc + 3ba 120 mg/kg. The method, then:
We then examined the effect of 3ba in combination with tpc on the lifespan of mice. C57BL/6 mice were intraperitoneally inoculated with the ascites variant of Lewis carcinoma. Group 1: control without treatment; group 2: tpc 0.5 mg/kg intraperitoneally; group 3: tpc and 3ba intraperitoneally 120 mg/kg; and group 4: 3ba 120 mg/kg only.
as §1, §2, §3

In series [3] the target is T1, Tdp1. On the set-up: method as in PMID 27658793. Particulars: Tdp1 inhibition, Figure 1; cited from earlier work.
The subject of a further series is human cancer cells. Further details: method as in PMID 27658793. To be noted: compound in non-toxic doses; cited from earlier work.

Read-outs that look alike come from different tables or passages of the source.

T1 sequence (Q9NUW8 whole entry): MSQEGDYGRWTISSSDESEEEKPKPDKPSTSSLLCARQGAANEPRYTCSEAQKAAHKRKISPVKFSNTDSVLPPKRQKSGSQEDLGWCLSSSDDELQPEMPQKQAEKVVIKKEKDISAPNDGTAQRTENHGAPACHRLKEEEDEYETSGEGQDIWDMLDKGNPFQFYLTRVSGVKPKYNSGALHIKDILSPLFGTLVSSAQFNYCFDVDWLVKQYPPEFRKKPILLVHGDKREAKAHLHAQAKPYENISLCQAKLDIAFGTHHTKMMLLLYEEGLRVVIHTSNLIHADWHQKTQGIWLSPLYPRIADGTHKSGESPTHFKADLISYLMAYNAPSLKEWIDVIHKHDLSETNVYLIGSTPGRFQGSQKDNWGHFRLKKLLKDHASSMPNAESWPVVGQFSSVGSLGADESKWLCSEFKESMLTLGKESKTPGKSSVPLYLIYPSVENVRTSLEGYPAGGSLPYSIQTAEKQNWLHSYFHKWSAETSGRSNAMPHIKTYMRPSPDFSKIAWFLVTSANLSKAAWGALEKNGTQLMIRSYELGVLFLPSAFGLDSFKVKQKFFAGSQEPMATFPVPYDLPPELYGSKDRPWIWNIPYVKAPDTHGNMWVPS
T2 sequence (Q9NUW8 149-608): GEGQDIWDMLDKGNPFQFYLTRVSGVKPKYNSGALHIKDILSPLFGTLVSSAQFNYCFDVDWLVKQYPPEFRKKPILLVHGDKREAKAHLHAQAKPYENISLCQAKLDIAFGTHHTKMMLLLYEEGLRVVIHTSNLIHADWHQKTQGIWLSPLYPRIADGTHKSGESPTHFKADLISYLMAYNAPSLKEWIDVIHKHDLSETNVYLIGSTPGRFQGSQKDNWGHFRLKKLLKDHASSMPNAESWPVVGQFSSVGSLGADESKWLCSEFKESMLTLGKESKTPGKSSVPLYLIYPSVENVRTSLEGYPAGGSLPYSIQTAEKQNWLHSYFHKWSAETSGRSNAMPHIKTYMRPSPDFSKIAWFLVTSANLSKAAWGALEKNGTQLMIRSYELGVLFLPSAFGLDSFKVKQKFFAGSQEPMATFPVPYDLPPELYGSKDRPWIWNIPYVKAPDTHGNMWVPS

Take `CC(C)=CCC/C(C)=C/COc1ccc2c(-c3ccc(F)cc3)cc(=O)oc2c1` [3ba, (E)-7-(3,7-Dimethylocta-2,6-dienyloxy)-4-(4-fluorophenyl)-2H-chromen-2-one]: at Tdp1 [1], the midpoint of inhibition, the IC50, lay at 0.62 µM. The Kd in series [2] stood at 63 ± 11 µM. Also, the “weight of the ascitic tumor / tumor growth” value in the series with Krebs-2 carcinoma (3ba 20 mg/kg i.p. + tpc 0.5 mg/kg i.p. (group 5)) and in the series on Krebs-2 carcinoma (3ba 80 mg/kg i.p. in the absence of tpc (group 6)) was “did not affect tumor growth” throughout. In addition, the “weight of the ascitic tumor” value with Krebs-2 carcinoma (3ba 40 mg/kg i.p. + tpc 0.5 mg/kg i.p. (group 4)) is “decrease in ascites weight, although the difference between groups 2 and 4 was not significant”; with Krebs-2 carcinoma (3ba 80 mg/kg i.p. + tpc 0.5 mg/kg i.p. (group 3)), “significant decrease”. Moreover, the “number of tumor cells in ascites” value in the series with Krebs-2 carcinoma (tpc 0.5 mg/kg + 3ba 80 mg/kg i.p. (group 3), only one mouse gave ascitic fluid) was determined as 250 mln. Moreover, the prolongation of life in the series with Lewis carcinoma (monotherapy at selected doses (tpc 0.5 mg/kg or 3ba 120 mg/kg), unreliable, p > 0.05) is on record as 13–19%. The increase in lifespan with Lewis carcinoma (compared with mice receiving only tpc, p = 0.0065) is reported as 26%; with Lewis carcinoma (compared with the control group, p = 0.0002), 42%.
With `COc1cccc(COc2ccc3c4c(c(=O)oc3c2)CCCC4)c1` [compound 1], the half-inhibitory concentration (IC50) at Tdp1 [3] was 5 µM.
On to `CC1(C)C2CC=C(COc3ccc4c5c(c(=O)oc4c3)CCC5)C1C2` (stereo not drawn) [compound 2], for which the “effect on the cytotoxic activity of CPT” value with human cancer cells is given as “significantly increased”.
